Measured values: patent publication US4271163A, “Novel 3,4-diaza-bicyclo[4.1.0]hept-2-en-5-ones, their preparation, and therapeutic agents containing these compounds” (BASF Aktiengesellschaft, priority 1978, dated 1981)
≈ marks a conversion by molar mass, not a printed value. Where two headings read alike, the source gives them in different places.

What was measured:
rat thrombocytes = test: Inhibition of the collagen-induced aggregation of rat thrombocytes ex vivo; assay type: in vivo, rat (male Sprague-Dawley); conditions: for ED (33%): Rattus norvegicus, read-out: Inhibition of thrombocyte aggregation, ED 33%; for Inhibition of thrombocyte aggregation, R.A. (relative activity): acetylsalicylic acid = 1.00; for Inhibition of thrombocyte aggregation after oral administration in vivo (in words): versus acetylsalicylic acid
Method: (§1) Thrombocyte-rich plasma is obtained by centrifuging venous citrate blood (300 g, 10 minutes duration at 4° C.). The photometric measurement of the thrombocyte aggregation is carried out with addition of MgCl2 (final concentration 10 millimoles/l) and of collagen Stago (final concentration 0.02 mg/ml) in a Born Mk 3 aggregometer. The maximum extinction change/sec is used as a measure of the aggregation.
2. Inhibition of the collagen-induced aggregation of rat thrombocytes ex vivo.
The substances are administered orally to groups of 10-15 male Sprague-Dawley rat weighing 200-250 g. 1-4 hours after administration, blood is taken under ether narcosis and thrombocyte-rich plasma is obtained by centrifuging. The aggregation after addition of collagen is measured as indicated above. The ED 33% is determined as the dose which inhibits the collagen-induced thrombocyte aggregation by 33%.
(§2) The effective doses or effective concentrations were calculated from the linear relationships between the logarithm of the dose or concentration and the logarithm of the effect, by means of regression analysis.
(§3) Acetylsalicylic acid was used as the reference substance for the inhibition of thrombocyte aggregation and dihydralazine for the anti-hypertensive effect.

human thrombocytes = test: Inhibition of the collagen-induced aggregation of human thrombocytes in vitro; assay type: cell-based; conditions: for EC50: 10 min, read-out: Inhibition of collagen-induced thrombocyte aggregation in vitro, EC 50%; for Inhibition of aggregation, R.A. (relative activity): acetylsalicylic acid = 1.00
Method: 1. Inhibition of the collagen-induced aggregation of human thrombocytes in vitro.
as §1
The aggregation-inhibiting activity of the substances is tested after an incubation time of 10 minutes.
The EC 50% is taken to be the concentration causing 50% inhibition of aggregation.
as §2, §3

narcotized rats = test: Anti-hypertensive effect on narcotized rats; assay type: in vivo, rat (male Sprague-Dawley); conditions: rats under urethane narcosis, intraperitoneal; for ED (20%): Rattus norvegicus, ip, dose which lowers the blood pressure by 20%, read-out: Reduction in blood pressure, ED 20%; for Reduction in blood pressure, R.A. (relative activity): dihydralazine = 1.00
Method: 3. Anti-hypertensive effect on narcotized rats.
To test the anti-hypertensive effect, the substances are administered intraperitoneally to groups of 3-5 male Sprague-Dawley rats weighing 240-280 g, under urethane narcosis ([…] given intraperitoneally).
The measurement of the blood pressure in the carotid artery is carried out by means of Statham transducers. The ED 20% is determined as the dose which lowers the mean carotid blood pressure by 20%.
as §2, §3

[1] = test system: spontaneously hypertonic rats; test: Anti-hypertensive effect on spontaneously hypertonic rats; assay type: in vivo, rat (male spontaneously hypertonic Okamoto); conditions: for ED (20%): Rattus norvegicus, 2 h, dose which lowers the blood pressure by 20% compared to the control group; for ED (20%) / Anti-hypertensive effect, R.A.: oral administration; for Anti-hypertensive effect, R.A.: dihydralazine = 1.00
Method: 4. Anti-hypertensive effect on spontaneously hypertonic rats.
The substances are administered orally to groups of 4-8 male spontaneously hypertonic Okamoto rats weighing 270-340 g. Before, and 2 hours after, the administration, the systolic blood pressure is measured non-surgically by means of piezo-electric crystal sensors.
The ED 20% is determined as the dose which lowers the systolic pressure by 20%, taking into account the values found with untreated control animals.
as §2, §3

[2] = rats, oral administration, dose which inhibits the collagen-induced aggregation by 33%
[3] = human thrombocytes in vitro, concentration which inhibits the collagen-induced aggregation by 50%, 10 minutes incubation

Row | EC50 (human thrombocytes; [3]) [µg/mL] | SMILES | ED (33%) (rat thrombocytes; po) [mg/kg] | Inhibition of thrombocyte aggregation, R.A. (relative activity) (rat thrombocytes; rats, oral administration) | EC50 (human thrombocytes; Homo sapiens) [µg/mL] | ED (33%) (rat thrombocytes; [2]) [mg/kg] | Inhibition of thrombocyte aggregation after oral administration in vivo (in words) (rat thrombocytes; rats) | Inhibition of aggregation, R.A. (relative activity) (human thrombocytes; human thrombocytes in vitro) | ED (20%) (narcotized rats) [mg/kg] | Reduction in blood pressure, R.A. (relative activity) (narcotized rats) | ED (20%) [1] [mg/kg] | Anti-hypertensive effect in spontaneously hypertonic rats after oral administration (in words) [1] | Anti-hypertensive effect, R.A. [1]
1 | 0.99 (≈ 3.39 µM) | CC(Cl)C(=O)Nc1ccc(C2=NNC(=O)C3CC23)cc1 (stereo not shown) [Example 20, 2-[p-(2-chloropropionylamino)-phenyl]-3,4-diaza-bicyclo[4.1.0]hept-2-en-5-one] |  | 35.83 |  | 3.74 | far surpasses the effect of acetylsalicylic acid | 499 | 0.278 | 1.21 | 10 | demonstrable | 0.69
2 | 0.14 (≈ 0.576 µM) | CC(=O)Nc1ccc(C2=NNC(=O)C3CC23)cc1 (stereo not shown) [Example 7, 2-(p-acetylaminophenyl)-3,4-diaza-bicyclo[4.1.0]hept-2-en-5-one] |  | 4.36 |  | 30.7 | far surpasses the effect of acetylsalicylic acid | 3530 | 0.193 | 1.75 | 8.65 | demonstrable | 0.79
3 | 0.28 (≈ 1.09 µM) | CCC(=O)Nc1ccc(C2=NNC(=O)C3CC23)cc1 (stereo not shown) [Example 11, 2-(p-propionylaminophenyl)-3,4-diaza-bicyclo[4.1.0]hept-2-en-5-one] |  | 90.54 |  | 1.48 | far surpasses the effect of acetylsalicylic acid | 1760 | 0.134 | 2.52 | 10 | demonstrable | 0.69
4 | 4.88 (≈ 18 µM) | CC(C)C(=O)Nc1ccc(C2=NNC(=O)C3CC23)cc1 (stereo not shown) [Example 16, 2-(p-isobutyrylaminophenyl)-3,4-diaza-bicyclo[4.1.0]hept-2-en-5-one] |  |  |  |  |  | 101 | 0.402 | 0.84 |  |  | 
5 | 1.87 (≈ 6.89 µM) | CCCC(=O)Nc1ccc(C2=NNC(=O)C3CC23)cc1 (stereo not shown) [Example 15, 2-(p-butyrylaminophenyl)-3,4-diaza-bicyclo[4.1.0]hept-2-en-5-one] |  |  |  |  |  | 264 | 1.88 | 0.18 |  |  | 

Continued, compound first:

Row | SMILES | EC50 (human thrombocytes; [3]) [µg/mL] | ED (33%) (rat thrombocytes; po) [mg/kg] | Inhibition of thrombocyte aggregation, R.A. (relative activity) (rat thrombocytes; rats, oral administration) | EC50 (human thrombocytes; Homo sapiens) [µg/mL] | ED (33%) (rat thrombocytes; [2]) [mg/kg] | Inhibition of thrombocyte aggregation after oral administration in vivo (in words) (rat thrombocytes; rats) | Inhibition of aggregation, R.A. (relative activity) (human thrombocytes; human thrombocytes in vitro) | ED (20%) (narcotized rats) [mg/kg] | Reduction in blood pressure, R.A. (relative activity) (narcotized rats) | ED (20%) [1] [mg/kg] | Anti-hypertensive effect in spontaneously hypertonic rats after oral administration (in words) [1] | Anti-hypertensive effect, R.A. [1]
6 | CC(=O)Oc1ccccc1C(=O)O [Acetylsalicylic acid, reference compound] |  | 134 | 1.00 | 494 (≈ 2740 µM) |  |  |  |  |  |  |  | 
7 | NNc1nnc(NN)c2ccccc12 [Dihydralazine, reference compound] |  |  |  |  |  |  |  | 0.337 | 1.0 | 6.85 |  | 1.00
8 | O=C(Nc1ccc(C2=NNC(=O)C3CC23)cc1)C1CC1 (stereo not shown) [Example 13, 2-(p-cyclopropylcarbonylaminophenyl)-3,4-diaza-bicyclo[4.1.0]hept-2-en-5-one hemihydrate] | 5.57 |  | 53.60 |  | 2.5 | far surpasses the effect of acetylsalicylic acid | 89 | 0.0465 | 7.25 | 2.78 | demonstrable | 2.46
9 | O=C(Nc1ccc(C2=NNC(=O)C3CC23)cc1)C1CCC1 (stereo not shown) [Example 27, 2-(p-cyclobutylcarbonylaminophenyl)-3,4-diaza-bicyclo[4.1.0]hept-2-en-5-one] | 1.42 (≈ 5.01 µM) |  |  |  |  |  | 348 | 0.398 | 0.85 |  |  | 
10 | O=C(CCCCl)Nc1ccc(C2=NNC(=O)C3CC23)cc1 (stereo not shown) [Example 21, 2-[p-(4-chlorobutyrylamino)-phenyl]-3,4-diaza-bicyclo[4.1.0]hept-2-en-5-one] | 2.27 (≈ 7.42 µM) |  |  |  |  |  | 218 | 6.81 | 0.05 |  |  | 
11 | CC(Cl)(Cl)C(=O)Nc1ccc(C2=NNC(=O)C3CC23)cc1 (stereo not shown) [Example 24, 2-[p-(2,2-dichloropropionylamino)-phenyl]-3,4-diaza-bicyclo[4.1.0]hept-2-en-5-one] | 3.2 (≈ 9.81 µM) |  |  |  |  |  | 154 | 10 | 0.03 |  |  | 
